Reference: patent US10485236B2, “Triazole derivatives, intermediates thereof and their use as fungicides” (Bayer CropScience Aktiengesellschaft, priority 2015, dated 2019)

How the values were obtained:
Venturia inaequalis = test: Example H: in vivo preventive test on Venturia test (apples); settings: 240 h, 100 ppm of active ingredient, preventive spray, evaluated 10 days after inoculation, read-out: efficacy
Experimental: Example H: In Vivo Preventive Test on Venturia Test (Apples) [table] To produce a suitable preparation of active compound, 1 part by weight of active compound is mixed with the stated amounts of solvent and emulsifier, and the concentrate is diluted with water to the desired concentration. To test for preventive activity, young plants are sprayed with the preparation of active compound at the stated rate of application. After the spray coating has dried on, the plants are inoculated with an aqueous conidia suspension of the causal agent of apple scab (Venturia inaequalis) and then remain for 1 day in an incubation cabinet at approximately 20° C. and a relative atmospheric humidity of 100%. The plants are then placed in a greenhouse at approximately 21° C. and a relative atmospheric humidity of approximately 90%. The test is evaluated 10 days after the inoculation. 0% means an efficacy which corresponds to that of the untreated control, while an efficacy of 100% means that no disease is observed.

Alternaria solani = test: Example F: in vivo preventive test on Alternaria test (tomatoes); settings: 72 h, 100 ppm of active ingredient, preventive spray, evaluated 3 days after inoculation, read-out: efficacy
Experimental: Example F: In Vivo Preventive Test on Alternaria Test (Tomatoes) [table] To produce a suitable preparation of active compound, 1 part by weight of active compound is mixed with the stated amounts of solvent and emulsifier, and the concentrate is diluted with water to the desired concentration. To test for preventive activity, young plants are sprayed with the preparation of active compound at the stated rate of application. After the spray coating has dried on, the plants are inoculated with an aqueous spore suspension of Alternaria solani. The plants are then placed in an incubation cabinet at approximately 20° C. and a relative atmospheric humidity of 100%. The test is evaluated 3 days after the inoculation. 0% means an efficacy which corresponds to that of the untreated control while an efficacy of 100% means that no disease is observed.

Botrytis cinerea = test: Example A: in vivo preventive test on Botrytis cinerea (grey mould), gherkin; settings: gherkin plants, preventive spray, evaluated 4 to 5 days after inoculation, read-out: efficacy
Experimental: Example A: In Vivo Preventive Test on Botrytis cinerea (Grey Mould) [table] The active ingredients are made soluble and homogenized in a mixture of Dimethyl sulfoxide/Acetone//Tween® 80 and then diluted in water to the desired concentration. The young plants of gherkin are treated by spraying the active ingredient prepared as described above. Control plants are treated only with an aqueous solution of Acetone/Dimethyl sulfoxide/Tween® 80. After 24 hours, the plants are contaminated by spraying the leaves with an aqueous suspension of Botrytis cinerea spores. The contaminated gherkin plants are incubated for 4 to 5 days at 17° C. and at 90% relative humidity. The test is evaluated 4 to 5 days after the inoculation. 0% means an efficacy which corresponds to that of the control plants while an efficacy of 100% means that no disease is observed.

Septoria tritici = test: Example C: in vivo preventive test on Septoria tritici (leaf spot on wheat); settings: Zymoseptoria tritici, 576 h; 500 ppm of active ingredient; wheat plants, preventive spray; evaluated 24 days after inoculation; read-out: efficacy
Experimental: Example C: In Vivo Preventive Test on Septoria tritici (Leaf Spot on Wheat) [table] The active ingredients are made soluble and homogenized in a mixture of Dimethyl sulfoxide/Acetone//Tween® 80 and then diluted in water to the desired concentration. The young plants of wheat are treated by spraying the active ingredient prepared as described above. Control plants are treated only with an aqueous solution of Acetone/Dimethyl sulfoxide/Tween® 80. After 24 hours, the plants are contaminated by spraying the leaves with an aqueous suspension of Septoria tritici spores. The contaminated wheat plants are incubated for 72 hours at 18° C. and at 100% relative humidity and then for 21 days at 20° C. and at 90% relative humidity. The test is evaluated 24 days after the inoculation. 0% means an efficacy which corresponds to that of the control plants while an efficacy of 100% means that no disease is observed.

Uromyces appendiculatus = test: Example E: in vivo preventive test on Uromyces appendiculatus (bean rust); settings: 264 h, 500 ppm of active ingredient, bean plants, preventive spray, evaluated 11 days after inoculation, read-out: efficacy
Experimental: (§1) Example E: In Vivo Preventive Test on Uromyces appendiculatus (Bean Rust) [table] The active ingredients are made soluble and homogenized in a mixture of Dimethyl sulfoxide/Acetone//Tween® 80 and then diluted in water to the desired concentration. The young plants of bean are treated by spraying the active ingredient prepared as described above. Control plants are treated only with an aqueous solution of Acetone/Dimethyl sulfoxide/Tween® 80. After 24 hours, the plants are contaminated by spraying the leaves with an aqueous suspension of Uromyces appendiculatus spores. The contaminated bean plants are incubated for 24 hours at 20° C. and at 100% relative humidity and then for 10 days at 20° C. and at 70-80% relative humidity. The test is evaluated 11 days after the inoculation. 0% means an efficacy which corresponds to that of the control plants while an efficacy of 100% means that no disease is observed.

[1] = Measurement of LogP values by HPLC on reversed phase columns (EEC directive 79/831 Annex V.A8); format: physicochemical; settings: reversed phase HPLC column, method [a]: LC-UV, acidic range, 0.1% formic acid in water and acetonitrile as eluent
Method in brief: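 Calibrated with straight-chain alkan-2-ones (3–16 carbons) of known LogP, using retention times with linear interpolation between successive alkanones. Where one method gives several LogP values, all are listed, joined by "+". Lambda-max taken from UV spectra (200–400 nm) at chromatographic peak maxima.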

Sphaerotheca fuliginea [2] = test: Example M: in vivo preventive test on Sphaerotheca (cucumbers); comparison of phenoxy-pyridyl compounds vs. known phenoxy-phenyl compounds; settings: Podosphaera fuliginea, 168 h, rate of application 10 ppm, evaluated 7 days after inoculation, read-out: Efficacy in %
Experimental: Example M: In Vivo Preventive Test on Sphaerotheca (Cucumbers); Comparison of Phenoxy-pyridyl Compounds According to the Invention Vs. Known Phenoxy-phenyl Compounds [table] To produce a suitable preparation of active compound, 1 part by weight of active compound is mixed with the above stated amounts of solvent and emulsifier, and the concentrate is diluted with water to the desired concentration. To test for preventive activity, young plants are sprayed with the preparation of active compound at the stated rate of application. After the spray coating has dried on, the plants are inoculated with an aqueous spore suspension of Sphaerotheca fuliginea. The plants are then placed in a greenhouse at approximately 23° C. and a relative atmospheric humidity of approximately 70%. The test is evaluated 7 days after the inoculation. 0% means an efficacy which corresponds to that of the untreated control, while an efficacy of 100% means that no disease is observed. [table]

Sphaerotheca fuliginea [3] = test: Example D: in vivo preventive test on Sphaerotheca fuliginea (powdery mildew on cucurbits); settings: Podosphaera fuliginea, 360 h; 500 ppm of active ingredient; gherkin plants, preventive spray; evaluated 15 days after inoculation; read-out: efficacy
Experimental: Example D: In Vivo Preventive Test on Sphaerotheca fuliginea (Powdery Mildew on Cucurbits) [table] The active ingredients are made soluble and homogenized in a mixture of Dimethyl sulfoxide/Acetone//Tween® 80 and then diluted in water to the desired concentration. The young plants of gherkin are treated by spraying the active ingredient prepared as described above. Control plants are treated only with an aqueous solution of Acetone/Dimethyl sulfoxide/Tween® 80. After 24 hours, the plants are contaminated by spraying the leaves with an aqueous suspension of Sphaerotheca fuliginea spores. The contaminated gherkin plants are incubated for 72 hours at 18° C. and at 100% relative humidity and then for 12 days at 20° C. and at 70-80% relative humidity. The test is evaluated 15 days after the inoculation. 0% means an efficacy which corresponds to that of the control plants while an efficacy of 100% means that no disease is observed.

Puccinia recondita = test: Example B: in vivo preventive test on Puccinia recondita (brown rust on wheat); settings: 264 h, 500 ppm of active ingredient, wheat plants, preventive spray, evaluated 11 days after inoculation, read-out: efficacy
Experimental: as §1, with “B:” for “E:”, “Puccinia recondita (Brown Rust on Wheat)” for “Uromyces appendiculatus (Bean Rust)”, “wheat” for “bean”, “Puccinia recondita” for “Uromyces appendiculatus”

chromatographic logP [1]: 3
SMILES: Cc1ccc(Oc2ccc(C(C)(O)Cn3cncn3)c(Cl)n2)cc1Cl (stereo not drawn) [I.29]
pest or weed control at 100 ppm (Venturia inaequalis): 90 to 100%
pest or weed control at 100 ppm (Alternaria solani): 90 to 100%
pest or weed control (Botrytis cinerea): 90 to 100%
pest or weed control at 500 ppm (Septoria tritici): 90 to 100%
pest or weed control at 500 ppm (Uromyces appendiculatus): 90 to 100%
pest or weed control at 10 ppm (Sphaerotheca fuliginea [2]): 95%
pest or weed control at 500 ppm (Sphaerotheca fuliginea [3]): 90 to 100%
pest or weed control at 500 ppm (Puccinia recondita): 80 to 89%
